# Laboratory results: patent US8901118B2, “Compounds and methods for kinase modulation, and indications therefor” (Plexxikon Inc., priority 2010, dated 2014)
# Legend:
# BCR-NTRK1 BaF3 cells = target: T1, BCR-NTRK1 BaF3 cells (Homo sapiens, UniProt P04629); assay: BaF3 BCR-NTRK1 cell proliferation assay (ATPlite); assay type: cell-based; details: read-out: Inhibition of Cell Proliferation IC50, BCR/BaF3 TrkA
# T1 construct: fused on or other part: P11274 (Breakpoint cluster region protein)
# Method in brief: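 BaF3 cells expressing BCR fusions were plated at 10,000 cells/well without IL-3, and MV-4-11 cells at 25,000 cells/well. Cells were treated the next day with an 8-point 1:3 dilution series (top 10 μM final) and incubated 3 days at 37 °C. ATPlite luminescence gave cell number, from which IC50 was fitted.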
# CYP2D6 = CYP2D6 (Homo sapiens, UniProt P10635); assay: CYP2D6 inhibition (fluorescent substrate AMMC); assay type: in vitro ADME; details: read-out: Cyp IC50 2D6
# Method in brief: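 Inhibition is measured as the drop in fluorescent metabolite formation across a 10-point compound titration with NADPH regeneration at 37 °C. Incubation lasts 15 min for CYP1A2, 45 min for CYP2C9 and 30 min for CYP2C19 and CYP2D6.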
# CYP3A4(BFC) = CYP3A4(BFC) (Homo sapiens, UniProt P08684); assay: CYP3A4(BFC) inhibition; assay type: in vitro ADME; details: CYP3A4, substrate BFC; read-out: Cyp IC50 3A4(BFC)
# Method in brief: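 Inhibition of human CYP3A4 with the BFC substrate was measured by fluorescence loss of the metabolized product. Compounds at 100 mM in DMSO were diluted 1 μL into 82 μL acetonitrile, then 11 μL into 204 μL cofactor mix with NADPH regeneration solutions, and serially diluted 1:1 to 10 points. Plates were incubated 30 min at 37° C and read at 409 ex/460 em to obtain IC50.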
# Sequence of CYP2D6 (P10635 whole entry): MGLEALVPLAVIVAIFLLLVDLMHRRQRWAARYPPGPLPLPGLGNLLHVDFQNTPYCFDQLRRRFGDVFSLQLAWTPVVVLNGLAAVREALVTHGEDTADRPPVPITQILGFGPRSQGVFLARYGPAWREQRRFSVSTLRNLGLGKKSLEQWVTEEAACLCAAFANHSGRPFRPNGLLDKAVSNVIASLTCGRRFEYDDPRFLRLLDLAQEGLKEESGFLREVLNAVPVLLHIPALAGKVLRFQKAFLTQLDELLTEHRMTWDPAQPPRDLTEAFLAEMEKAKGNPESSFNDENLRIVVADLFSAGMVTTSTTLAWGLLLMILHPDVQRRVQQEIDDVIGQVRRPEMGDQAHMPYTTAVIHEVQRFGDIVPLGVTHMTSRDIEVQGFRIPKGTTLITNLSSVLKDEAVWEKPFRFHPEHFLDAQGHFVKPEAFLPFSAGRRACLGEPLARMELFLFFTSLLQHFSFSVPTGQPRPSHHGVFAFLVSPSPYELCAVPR
# Sequence of CYP3A4(BFC) (P08684 whole entry): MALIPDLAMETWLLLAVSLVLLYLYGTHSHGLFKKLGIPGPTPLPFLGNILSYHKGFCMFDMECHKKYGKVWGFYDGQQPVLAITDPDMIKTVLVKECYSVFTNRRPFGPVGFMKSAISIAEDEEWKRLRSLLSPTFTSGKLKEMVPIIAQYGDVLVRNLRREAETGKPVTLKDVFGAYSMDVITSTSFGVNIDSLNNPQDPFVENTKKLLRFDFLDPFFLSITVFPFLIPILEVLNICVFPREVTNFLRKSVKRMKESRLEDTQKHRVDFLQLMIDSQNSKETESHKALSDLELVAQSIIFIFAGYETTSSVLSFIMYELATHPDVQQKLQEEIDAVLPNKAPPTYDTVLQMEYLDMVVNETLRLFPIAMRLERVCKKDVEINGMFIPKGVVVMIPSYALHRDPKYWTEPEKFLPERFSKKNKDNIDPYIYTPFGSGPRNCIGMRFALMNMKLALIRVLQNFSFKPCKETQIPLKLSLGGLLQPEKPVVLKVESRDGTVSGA
# T1 sequence (P04629 510-781): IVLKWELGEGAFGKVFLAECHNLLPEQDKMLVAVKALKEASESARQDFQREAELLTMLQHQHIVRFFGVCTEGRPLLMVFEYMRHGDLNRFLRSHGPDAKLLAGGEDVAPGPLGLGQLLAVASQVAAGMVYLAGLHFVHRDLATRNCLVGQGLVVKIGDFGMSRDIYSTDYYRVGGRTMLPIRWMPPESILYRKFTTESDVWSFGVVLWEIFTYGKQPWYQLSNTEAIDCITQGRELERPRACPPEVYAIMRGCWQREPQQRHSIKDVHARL
SMILES,IC50 (BCR-NTRK1 BaF3 cells) [µM],IC50 (CYP2D6) [µM],IC50 (CYP3A4(BFC)) [µM]
"CCc1ccc(Nc2ccc(Cc3c[nH]c4ncnc(C)c34)c(F)n2)cn1 [Compound P-4009, (6-Ethyl-pyridin-3-yl)-[6-fluoro-5-(4-methyl-7H-pyrrolo[2,3-d]pyrimidin-5-ylmethyl)-pyridin-2-yl]-amine]",< 0.1,> 10,> 10
"COc1ncnc2[nH]cc(Cc3ccc(Nc4ccc(C)nc4)nc3F)c12 [Compound P-4010, [6-Fluoro-5-(4-methoxy-7H-pyrrolo[2,3-d]pyrimidin-5-ylmethyl)-pyridin-2-yl]-(6-methyl-pyridin-3-yl)-amine]",< 1,> 10,> 10
"CCn1cc(Nc2ccc(Cc3c[nH]c4ncnc(OC)c34)c(F)n2)cn1 [Compound P-4011, (1-Ethyl-1H-pyrazol-4-yl)-[6-fluoro-5-(4-methoxy-7H-pyrrolo[2,3-d]pyrimidin-5-ylmethyl)-pyridin-2-yl]-amine]",< 1,> 10,5 to 10
"CCOc1ncnc2[nH]cc(Cc3ccc(Nc4cnn(CC)c4)nc3F)c12 [Compound P-4012, [5-(4-Ethoxy-7H-pyrrolo[2,3-d]pyrimidin-5-ylmethyl)-6-fluoro-pyridin-2-yl]-(1-ethyl-1H-pyrazol-4-yl)-amine]",< 1,> 10,> 10
"CCn1cc(Nc2ccc(Cc3c[nH]c4ncnc(C)c34)c(F)n2)cn1 [Compound P-4013, (1-Ethyl-1H-pyrazol-4-yl)-[6-fluoro-5-(4-methyl-7H-pyrrolo[2,3-d]pyrimidin-5-ylmethyl)-pyridin-2-yl]-amine]",< 1,> 10,> 10
"CCn1cc(Nc2ccc(Cc3c[nH]c4ncnc(OCCOC)c34)c(F)n2)cn1 [Compound P-4014, (1-Ethyl-1H-pyrazol-4-yl)-{6-fluoro-5-[4-(2-methoxy-ethoxy)-7H-pyrrolo[2,3-d]pyrimidin-5-ylmethyl]-pyridin-2-yl}-amine]",< 1,< 5,5 to 10
"COCCOc1ncnc2[nH]cc(Cc3ccc(Nc4ccc(C)nc4)nc3F)c12 [Compound P-4015, {6-Fluoro-5-[4-(2-methoxy-ethoxy)-7H-pyrrolo[2,3-d]pyrimidin-5-ylmethyl]-pyridin-2-yl}-(6-methyl-pyridin-3-yl)-amine]",< 1,> 10,> 10
"CCc1ccc(Nc2ccc(Cc3c[nH]c4ncnc(OCCOC)c34)c(F)n2)cn1 [Compound P-4016, (6-Ethyl-pyridin-3-yl)-{6-fluoro-5-[4-(2-methoxy-ethoxy)-7H-pyrrolo[2,3-d]pyrimidin-5-ylmethyl]-pyridin-2-yl}-amine]",< 0.1,> 10,> 10
"CCOc1ncnc2[nH]cc(Cc3ccc(Nc4ccc(C)nc4)nc3F)c12 [Compound P-4017, [5-(4-Ethoxy-7H-pyrrolo[2,3-d]pyrimidin-5-ylmethyl)-6-fluoro-pyridin-2-yl]-(6-methyl-pyridin-3-yl)-amine]",< 1,> 10,> 10
"CCOc1ncnc2[nH]cc(Cc3ccc(Nc4ccc(OC)nc4)nc3F)c12 [Compound P-4018, [5-(4-Ethoxy-7H-pyrrolo[2,3-d]pyrimidin-5-ylmethyl)-6-fluoro-pyridin-2-yl]-(6-methoxy-pyridin-3-yl)-amine]",< 0.1,> 10,5 to 10
"COCCOc1ncnc2[nH]cc(Cc3ccc(Nc4ccc(OC)nc4)nc3F)c12 [Compound P-4019, {6-Fluoro-5-[4-(2-methoxy-ethoxy)-7H-pyrrolo[2,3-d]pyrimidin-5-ylmethyl]-pyridin-2-yl}-(6-methoxy-pyridin-3-yl)-amine]",< 1,> 10,5 to 10
"COc1ccc(Nc2ccc(C(=O)c3c[nH]c4ncnc(C5CC5)c34)c(F)n2)cn1 [Compound P-4022, (4-cyclopropyl-7H-pyrrolo[2,3-d]pyrimidin-5-yl)-[2-fluoro-6-(6-methoxy-pyridin-3-ylamino)-pyridin-3-yl]-methanone]",< 0.01,5 to 10,5 to 10
"COc1ccc(Nc2ccc(Cc3c[nH]c4ncnc(C5CC5)c34)c(F)n2)cn1 [Compound P-4023, [5-(4-cyclopropyl-7H-pyrrolo[2,3-d]pyrimidin-5-ylmethyl)-6-fluoro-pyridin-2-yl]-(6-methoxy-pyridin-3-yl)-amine]",< 0.1,5 to 10,< 5
"CCOc1ccc(Nc2ccc(C(=O)c3c[nH]c4ncnc(OC)c34)c(F)n2)cn1 [Compound P-4024, [6-(6-Ethoxy-pyridin-3-ylamino)-2-fluoro-pyridin-3-yl]-(4-methoxy-7H-pyrrolo[2,3-d]pyrimidin-5-yl)-methanone]",< 0.1,> 10,< 5
"CCOc1ncnc2[nH]cc(C(=O)c3ccc(Nc4ccc(OC)nc4)nc3F)c12 [Compound P-4025, (4-Ethoxy-7H-pyrrolo[2,3-d]pyrimidin-5-yl)-[2-fluoro-6-(6-methoxy-pyridin-3-ylamino)-pyridin-3-yl]-methanone]",< 0.1,> 10,< 5
"CCc1ccc(Nc2ccc(Cc3c[nH]c4ncnc(C5CC5)c34)c(F)n2)cn1 [Compound P-4028, [5-(4-Cyclopropyl-7H-pyrrolo[2,3-d]pyrimidin-5-ylmethyl)-6-fluoro-pyridin-2-yl]-(6-ethyl-pyridin-3-yl)-amine]",< 0.01,> 10,> 10
"CCc1ccc(Nc2ccc(C(=O)c3c[nH]c4ncnc(C5CC5)c34)c(F)n2)cn1 [Compound P-4029, (4-Cyclopropyl-7H-pyrrolo[2,3-d]pyrimidin-5-yl)-[6-(6-ethyl-pyridin-3-ylamino)-2-fluoro-pyridin-3-yl]-methanone]",< 0.01,> 10,> 10
"Cc1ccc(Nc2ccc(Cc3c[nH]c4ncnc(C5CC5)c34)c(F)n2)cn1 [Compound P-4030, [5-(4-Cyclopropyl-7H-pyrrolo[2,3-d]pyrimidin-5-ylmethyl)-6-fluoro-pyridin-2-yl]-(6-methyl-pyridin-3-yl)-amine]",< 1,> 10,> 10
"Cc1ccc(Nc2ccc(C(=O)c3c[nH]c4ncnc(C5CC5)c34)c(F)n2)cn1 [Compound P-4031, (4-Cyclopropyl-7H-pyrrolo[2,3-d]pyrimidin-5-yl)-[2-fluoro-6-(6-methyl-pyridin-3-ylamino)-pyridin-3-yl]-methanone]",< 0.1,< 5,> 10
"CCn1cc(Nc2ccc(Cc3c[nH]c4ncnc(C5CC5)c34)c(F)n2)cn1 [Compound P-4036, [5-(4-Cyclopropyl-7H-pyrrolo[2,3-d]pyrimidin-5-ylmethyl)-6-fluoro-pyridin-2-yl]-(1-ethyl-1H-pyrazol-4-yl)-amine]",< 1,> 10,5 to 10
"CCn1cc(Nc2ccc(C(=O)c3c[nH]c4ncnc(C5CC5)c34)c(F)n2)cn1 [Compound P-4037, (4-Cyclopropyl-7H-pyrrolo[2,3-d]pyrimidin-5-yl)-[6-(1-ethyl-1H-pyrazol-4-ylamino)-2-fluoro-pyridin-3-yl]-methanone]",< 0.1,> 10,5 to 10
"Fc1nc(NC2CCC(F)(F)CC2)ccc1Cc1c[nH]c2ncnc(NCC(F)(F)F)c12 [Compound P-4128, 5-[[6-[(4,4-difluorocyclohexyl)amino]-2-fluoro-3-pyridyl]methyl]-N-(2,2,2-trifluoroethyl)-7H-pyrrolo[2,3-d]pyrimidin-4-amine]",< 1,> 10,> 10
"Fc1nc(NC2CCC(F)(F)CC2)ccc1Cc1c[nH]c2ncnc(NC3CC3)c12 [Compound P-4129, N-cyclopropyl-5-[[6-[(4,4-difluorocyclohexyl)amino]-2-fluoro-3-pyridyl]methyl]-7H-pyrrolo[2,3-d]pyrimidin-4-amine]",< 1,5 to 10,< 5
"Fc1nc(Nc2ccc(C3CC3)nc2)ccc1Cc1c[nH]c2ncnc(NCC(F)(F)F)c12 [Compound P-4130, 5-[[6-[(6-cyclopropyl-3-pyridyl)amino]-2-fluoro-3-pyridyl]methyl]-N-(2,2,2-trifluoroethyl)-7H-pyrrolo[2,3-d]pyrimidin-4-amine]",< 0.1,> 10,< 5
